Assay results from US10449184B2, “Pharmaceutical compositions of therapeutically active compounds” (Agios Pharmaceuticals, Inc., priority 2014, dated 2019).
≈ marks a conversion by molar mass, not a printed value. Entries after “also recorded” stand apart in the source; their conditions may differ. Marks after values point to notes of the source that are not given here.

Assays:
[1] = system: IDH1 mutant R132H xenograft model; assay: 2HG reduction in IDH1 mutant R132H xenograft model; format: in vivo; details: single dose (50 mg/kg)
[2] = system: primary human IDH-mutated blast cells; assay: intracellular 2HG in primary blast cells ex vivo; format: cell-based; details: 0.5 uM, 1 uM and 5 uM
[3] = Phase 1 clinical trial: safety, adverse events and patient disposition; format: in vivo, human
Excerpt: The study includes a dose escalation phase to determine MTD followed by expansion cohorts to further evaluate the safety and tolerability of the MTD. The dose escalation phase will utilize a standard “3+3” design. […] Each dose cohort will plan to enroll a minimum of 3 subjects. The first 3 subjects enrolled in each dosing cohort during the dose escalation phase of the study will initially receive a single dose of study drug on Day −3 (i.e., 3 days prior to the start of daily dosing) and undergo PK/PD assessments over 72 hours to evaluate drug concentrations and 2HG levels. The next dose of study drug will be on Cycle 1 Day 1 (C1D1) at which time daily dosing will begin. The initial dosing regimen will be twice daily (approximately every 12 hours). If warranted based on the emerging data, an alternative dosing schedule (e.g., once daily or three times daily), including administration of the same total daily dose using different dosing schedules in concurrent cohorts, may be explored. If there are multiple subjects in the screening process at the time the third subject within a cohort begins treatment, up to 2 additional subjects may be enrolled with approval of the Medical Monitor. For these additional subjects, the Day −3 through Day 1 PK/PD assessments are optional following discussion with the Medical Monitor. The planned dose escalation scheme is illustrated in Table 1.
Toxicity severity will be graded according to the National Cancer Institute Common Terminology Criteria for Adverse Events (NCI CTCAE) version 4.03. A DLT is defined as follows. Hematologic includes prolonged myelosuppression, defined as persistence of ≥3 Grade neutropenia or thrombocytopenia (by NCI CTCAE, version 4.03, leukemia-specific criteria, i.e., marrow cellularity <5% on Day 28 or later from the start of study drug without evidence of leukemia) at least 42 days after the initiation of Cycle 1 therapy. Leukemia-specific grading should be used for cytopenias (based on percentage decrease from baseline: 50 to 75%=Grade 3, >75%=Grade 4). All AEs that cannot clearly be determined to be unrelated to Compound 1, or a pharmaceutically acceptable salt thereof will be considered relevant to determining DLTs.
AEs, including determination of DLTs, serious adverse events (SAEs), and AEs leading to discontinuation; safety laboratory parameters; physical examination findings; vital signs; 12-lead ECGs; LVEF; and ECOG PS will be monitored during the clinical study. The severity of AEs will be assessed by the NCI CTCAE, Version 4.03.
Adverse events will be summarized by Medical Dictionary for Regulatory Activities (MedDRA) system organ class and preferred term. Separate tabulations will be produced for all treatment-emergent AEs (TEAEs), treatment-related AEs (those considered by the Investigator as at least possibly drug related), SAEs, discontinuations due to AEs, and AEs of at least Grade 3 severity. By-subject listings will be provided for deaths, SAEs, DLTs, and AEs leading to discontinuation of treatment.

[4] = Phase 1 clinical trial: pharmacokinetics after oral administration; format: in vivo, human; details: patients
Method: A full 72-hour PK/PD profile will be conducted: subjects will be required to remain at the study site for 10 hours on Day −3 and return on Days −2, −1, and 1 for 24, 48, and 72 hour samples, respectively.
All subjects will undergo PK/PD assessments over a 10-hour period on both C1D15 and C2D1. Additional pre-dose urine and/or blood sampling will be conducted on C1D8, C1D22, C2D15, C3D1, C3D15, and on Day 1 of all subsequent cycles. Available bone marrow biopsy samples also will be assessed for 2HG levels.
The blood samples will also be used for the determination of 2HG concentrations and for evaluation of cholesterol and 4β-OH-cholesterol levels.
The PK/PD profile from Day −3 through Day 1 is optional for additional subjects enrolled in the dose escalation phase (i.e., for any subjects beyond the 3 initial subjects enrolled in a cohort) and is not required for subjects enrolled in the expansion cohorts.
All subjects will undergo 10-hour PK/PD sampling on C1D15 and C2D1 (i.e., on Days 15 and 29 of twice daily dosing). […] Blood samples also will be drawn on Days 8 and 22 of Cycle 1, Day 15 of Cycle 2, Days 1 and 15 of Cycle 3, and Day 1 of each cycle thereafter; all samples will be obtained prior to dosing. Additionally, one blood sample will be drawn at the End of Treatment Visit.

[5] = system: advanced hematologic malignancies that harbor an IDH1 mutation (R/R AML); assay: Phase 1 clinical trial: clinical activity assessed by Investigator using IWG AML and MDS criteria; format: in vivo, human
Excerpt: Subjects will undergo radiographic evaluations (CT/MRI), and assessment of bone marrow aspirates and biopsies and peripheral blood to assess the extent of disease, at screening, on Day 15, Day 29 and Day 57, and every 56 days thereafter while on study drug treatment, independent of dose delays and/or dose interruptions, and/or at any time when progression of disease is suspected. Two core tumor biopsies will be obtained at screening, at the time of the first assessment of response, and at the time of disease progression within a window of ±3 days around the planned assessment time point. For patients with acute myelogenous leukemia (AML), response to treatment will be determined by the Investigators based on modified International Working Group (IWG) response criteria.
Disease response to treatment will be assessed through the evaluation of bone marrow biopsies and/or aspirates, along with complete blood counts and examination of peripheral blood films. Subjects will have the extent of their disease assessed and recorded at screening, on Days 15, 29, and 57, every 56 days thereafter while on study drug treatment, independent of dose-delays and/or dose interruptions, and/or at any time when progression of disease is suspected. An assessment also will be conducted at the End of Treatment visit for subjects who discontinue the study due to reasons other than disease progression.
Response to treatment as assessed by the site Investigators using modified IWG (for subjects with hematologic malignancies, such as MDS, MDS/MPN or AML). Two-sided 90% confidence intervals on the response rates will be calculated for each dose level and overall. Data will also be summarized by type of malignancy for subjects in the cohort expansion phase. Descriptive statistics will be used to summarize Ki67 levels from tumor biopsies.

2HG = assay: Phase 1 clinical trial: plasma 2HG inhibition; format: in vivo, human; details: all dose levels
Method: Samples collected for PK assessments also will be used to assess 2HG levels. In addition, subjects will have blood drawn for determination of 2HG levels at the screening assessment.
The 2HG baseline was taken at Day −3 pre-treatment 2HG inhibition estimated based on 2HG pre-treatment level and AUC0-10 hr post treatment. For the 100 mg BID and 300 mg QD Cohorts, 3 to 4 patients were measured per time point and for the 500 mg QD Cohort, 1 to 3 patients were measured per time point.

[6] = solubility in fasted state simulated intestinal fluid (FASSIF); format: physicochemical; details: pH 6.1, fassif, pH of 6.1 at 4 hours
[7] = rat pharmacokinetics study of Example 4 (oral suspensions); format: in vivo, Sprague Dawley rats; details: Sprague Dawley, 200 mg/kg oral suspension in vehicle, plasma
Method: The following three homogenous suspensions of Compound 1 are provided:
Form 2 in vehicle (1% d-alpha-tocopheryl polyethylene glycol 1000 succinate (TPGS):1% HPMCAS in water), an amorphous solid dispersion of 25% w/w Form 2 and 75% w/w HPMCAS-M (Solid Dispersion A) in vehicle, and an amorphous solid dispersion of 25% w/w Form 2 and 75% w/w PVAP (Solid Dispersion B) in vehicle (200 mg/kg in 10 mL/kg).
Each suspension is prepared on the day of dosing, and the Sprague Dawley rats are dosed orally. Serial plasma samples are taken at different time points following dosing. […] PK parameters, including AUC0-72 hr and Cmax, are calculated using WinNonlin software.

N#Cc1ccnc(N2C(=O)CC[C@H]2C(=O)N(c2cncc(F)c2)[C@H](C(=O)NC2CC(F)(F)C2)c2ccccc2Cl)c1 [Compound 1, (S)—N—((S)-1-(2-chlorophenyl)-2-((3,3-difluorocyclobutyl)amino)-2-oxoethyl)-1-(4-cyanopyridin-2-yl)-N-(5-fluoropyridin-3-yl)-5-oxopyrrolidine-2-carboxamide]
2HG in xenograft [1]: Reduction in 2HG was observed | intracellular 2HG [2]: reduced intracellular 2HG | subjects discontinued study due to an intracranial bleed (SAE, resulted in death) ([3]; 100 mg BID): 1 | QT prolongation observed ([3]; 100 mg cohort, patient with history of R BBB): patient population. Other QT prolongations observed: Grade 1 prolonged | subjects who experienced differentiation syndrome (SAE) ([3]; 300 mg QD): 1 | DLT (dose limiting toxicity) observed ([3]; 800 mg QD): One DLT (dose limiting toxicity) of grade 3 QT prolongation | subjects who experienced tongue edema and QT prolongation (SAE) ([3]; 800 mg QD): 1 | QT prolongation observed ([3]; 800 mg cohort): 300 mg cohort; and Grade 3 prolonged QT (DLT) in 800 mg cohort. | At least 1 adverse event ([3]; All grades): 14 (82) n (%) | Cough ([3]; All grades): 4 (24) n (%) | Diarrhea ([3]; All grades): 3 (18) n (%) | Dyspnea ([3]; All grades): 5 (29) n (%) | Electrocardiogram QT prolonged ([3]; All grades): 3 (18) n (%) | Fatigue ([3]; All grades): 5 (29) n (%) | Febrile neutropenia ([3]; All grades): 3 (18) n (%) | Nausea ([3]; All grades): 5 (29) n (%) | Pyrexia ([3]; All grades): 4 (24) n (%) | Vomiting ([3]; All grades): 4 (24) n (%) | Death ≤28 days after Compound 1 Discontinuation ([3]; All patients (N = 17)): 6 | Discontinued due to AE (intracranial hemorrhage) ([3]; All patients (N = 17)): 1** n | Discontinued due to PD (progressive disease) ([3]; All patients (N = 17)): 4 n | Death ≤28 days after Compound 1 Discontinuation ([3]; Cohort 1 100 mg BID (n = 4)): 3 | Discontinued due to AE (intracranial hemorrhage) ([3]; Cohort 1 100 mg BID (n = 4)): 1** n | Discontinued due to PD (progressive disease) ([3]; Cohort 1 100 mg BID (n = 4)): 2 n | Death ≤28 days after Compound 1 Discontinuation ([3]; Cohort 2 300 mg QD (n = 4)): 2 | Discontinued due to PD (progressive disease) ([3]; Cohort 2 300 mg QD (n = 4)): 1 n | Death ≤28 days after Compound 1 Discontinuation ([3]; Cohort 3 500 mg QD (n = 4)): 1 | Discontinued due to PD (progressive disease) ([3]; Cohort 3 500 mg QD (n = 4)): 1 n | At least 1 adverse event ([3]; Grade ≥3): 11 (65) n (%) | Cough ([3]; Grade ≥3): 0 n (%) | Diarrhea ([3]; Grade ≥3): 0 n (%) | Dyspnea ([3]; Grade ≥3): 2 (12) n (%) | Electrocardiogram QT prolonged ([3]; Grade ≥3): 1 (6) n (%) | Fatigue ([3]; Grade ≥3): 1 (6) n (%) | Febrile neutropenia ([3]; Grade ≥3): 3 (18) n (%) | Nausea ([3]; Grade ≥3): 1 (6) n (%) | Pyrexia ([3]; Grade ≥3): 1 (6) n (%) | Vomiting ([3]; Grade ≥3): 0 n (%) | hypotension ([3]; Grade ≥3): Notable grade ≥3 AEs include: hypotension 2 (12%), mental status n (%) | mental status changes ([3]; Grade ≥3): changes 2 (12%), neutropenia 2 (12%). AEs appear typical for this n (%) | neutropenia ([3]; Grade ≥3): changes 2 (12%), neutropenia 2 (12%). AEs appear typical for this n (%) | subjects who experienced serious adverse events ([3]; all cohorts): Eight | half-life ([4]; human, plasma): 182 h | drug accumulation [4]: drug accumulation | plasma exposure [4]: high plasma exposure | CR (complete response) ([5]; Cohort 1 100 mg BID (n = 4)): 1 | Overall response rate (ORR = CR, Marrow CR and PR) ([5]; Cohort 1 100 mg BID (n = 4)): 1/4 | CR (complete response) ([5]; Cohort 2 300 mg QD (n = 4)): 1 | Overall response rate (ORR = CR, Marrow CR and PR) ([5]; Cohort 2 300 mg QD (n = 4)): 1/4 | PD (progressive disease) ([5]; Cohort 2 300 mg QD (n = 4)): 1 | CR (complete response) ([5]; Cohort 3 500 mg QD (n = 4)): 1 | Marrow CR (≤5% blasts in BM; no hematological recovery) ([5]; Cohort 3 500 mg QD (n = 4)): 2 | Overall response rate (ORR = CR, Marrow CR and PR) ([5]; Cohort 3 500 mg QD (n = 4)): 3/4 | CR (complete response) ([5]; Cohort 4 800 mg QD (n = 2)): 1 | Overall response rate (ORR = CR, Marrow CR and PR) ([5]; Cohort 4 800 mg QD (n = 2)): 2/2 | PR (partial response) ([5]; Cohort 4 800 mg QD (n = 2)): 1 | CR (complete response) ([5]; Total N = 14): 4 | Marrow CR (≤5% blasts in BM; no hematological recovery) ([5]; Total N = 14): 2 | Overall response rate (ORR = CR, Marrow CR and PR) ([5]; Total N = 14): 7/14 | PD (progressive disease) ([5]; Total N = 14): 1 | PR (partial response) ([5]; Total N = 14): 1 | blasts in bone marrow ([5]; patient refractory to 7+3, after 2 weeks of therapy): < 5% | response of single patient ([5]; patient, after 2 weeks of therapy, maintained at D28): met the criteria for a full CR | plasma levels of 2HG (2HG; 100 mg BID, 300 mg QD or 500 mg QD): reduced to a normal range; also recorded: reduced to normal ranges | plasma 2HG inhibition (2HG; vs Day -3 pre-treatment level, AUC0-10 hr post treatment): up to 98%

N#Cc1ccnc(N2C(=O)CC[C@H]2C(=O)N(c2cncc(F)c2)[C@H](C(=O)NC2CC(F)(F)C2)c2ccccc2Cl)c1 [Form 2, (S)—N—((S)-1-(2-chlorophenyl)-2-((3,3-difluorocyclobutyl)amino)-2-oxoethyl)-1-(4-cyanopyridin-2-yl)-N-(5-fluoropyridin-3-yl)-5-oxopyrrolidine-2-carboxamide]
solubility at 4 h [6]: ~18 µg/mL (≈ 30.9 µM) | Cmax [7]: 1600 ng/mL | AUC(0-t) ([7]; read-out: AUC0-72 hr): 21700 ng·h/mL
